Data from patent US20210393724A1, “MEDICINE FOR TREATMENT OF PSORIASIS AND PRODUCTION METHOD THEREOF” (YEDITEPE UNIVERSITESI, priority 2018, published 2021).

Test system: IMQ-induced psoriasis inflammation
Experiment: IMQ-induced psoriasis mouse model: PASI scoring, ear thickness, spleen/body weight
Format: in vivo, BALB/c mice
Details: MTX 1 mg/kg orally per day
Protocol: The cream named Aldara (Meda Pharma, 3M Health Care) containing 5% Imiquimib (IMQ) was administered once a day for 6 days on the shaved backs and right ears of 8-11 weeks old adult male BALB/c mice such that a total of 62.5 mg cream is applied per day per animal thereby psoriasis inflammation was produced in the animal model. Vaseline was applied to the shaved area of the animals in the control group. The positive control group received 1 mg/kg Mtx (Methotrexate) orally per day. The drug was administered orally at a dose of 5 mg/kg once a day during the experiment. Administration of the drug to the animals in the group where the semi-therapeutic effect of the drug was to be tested was initiated 1 day after the onset of induction of psoriasis with IMQ, and continued until the end of the experiment period. Body weight, and redness, flaking and thickening on the skin were daily measured and scored according to the Psoriasis Area Severity. Index (PASI) to monitor the general health status of the animals and the induction of psoriasis with IMQ. As required by the model, thickening of the right ear skin was also recorded on a regular basis since the day the experiments began. At the end of the application, animals were anesthetized by isoflurane and then euthanized by cervical dislocation. The size and weight of the spleen tissues were recorded.

CN(Cc1cnc2nc(N)nc(N)c2n1)c1ccc(C(=O)N[C@@H](CCC(=O)O)C(=O)O)cc1 [MTX, Methotrexate]
plaque formation (scaling) PASI score of IMQ-administered region on the back (as of the 4th day): decreased
total PASI score (as of the 4th day): Decrease
thickness PASI score of IMQ-administered region on the back (as of the 5th day): decreased
